# In patent US20250230193A1, “CYCLIC COMPOUND HAVING SELECTIVE KRAS INHIBITORY EFFECT ON HRAS AND NRAS” (CHUGAI SEIYAKU KABUSHIKI KAISHA, priority 2022, published 2025):
# Legend:
# [1] = biological target: GDP-bound NRAS wild-type protein (Homo sapiens, UniProt P01111); assay: Binding to NRAS by surface plasmon resonance (SPR), Single Cycle Kinetics; conditions: SPR; for NRAS/KRAS (ratio of KD value for GDP-bound NRAS wild-type protein to KD value for KRAS): KD ratio class
# [2] = biological target: GDP-bound HRAS wild-type protein (Homo sapiens, UniProt P01112); assay: Binding to HRAS by surface plasmon resonance (SPR), Single Cycle Kinetics; conditions: SPR; for HRAS/KRAS (ratio of KD value for GDP-bound HRAS wild-type protein to KD value for KRAS): KD ratio class
# GDP-bound HRAS wild-type protein, sequence (P01112 whole entry): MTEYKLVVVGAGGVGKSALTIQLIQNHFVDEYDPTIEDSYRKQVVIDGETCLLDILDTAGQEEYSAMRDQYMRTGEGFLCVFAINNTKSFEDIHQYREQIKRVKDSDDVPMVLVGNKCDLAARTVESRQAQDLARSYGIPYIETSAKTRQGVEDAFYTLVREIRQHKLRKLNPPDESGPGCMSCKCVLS
# GDP-bound NRAS wild-type protein, sequence (P01111 whole entry): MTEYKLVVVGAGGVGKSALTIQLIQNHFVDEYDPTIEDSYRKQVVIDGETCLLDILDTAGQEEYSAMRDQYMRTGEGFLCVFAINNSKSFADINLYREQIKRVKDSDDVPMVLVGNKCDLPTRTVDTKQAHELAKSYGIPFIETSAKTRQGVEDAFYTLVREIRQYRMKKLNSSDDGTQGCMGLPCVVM
SMILES,"NRAS/KRAS (ratio of KD value with respect to NRAS to KD value with respect to KRAS) ([1]; KD ratio, GDP-bound NRAS wild-type vs GDP-bound KRAS wild-type)","HRAS/KRAS (ratio of KD value with respect to HRAS to KD value with respect to KRAS) ([2]; KD ratio, GDP-bound HRAS wild-type vs GDP-bound KRAS wild-type)",NRAS/KRAS (ratio of KD value for GDP-bound NRAS wild-type protein to KD value for KRAS) [1],HRAS/KRAS (ratio of KD value for GDP-bound HRAS wild-type protein to KD value for KRAS) [2]
CCO[C@@H]1C[C@H]2C(=O)NC3(CCC3)C(=O)N(C)[C@@H](C(CC)CC)C(=O)N(C)[C@H](C(=O)N(C)C)CC(=O)N(C)[C@@H](CC(C)C)C(=O)N[C@@H]([C@@H](C)CC)C(=O)N(C)CC(=O)N(C)[C@H]3C/C=C\CCN(C3=O)[C@@H](Cc3ccc(C(F)(F)F)cc3)C(=O)N(C)CC(=O)N[C@@H](CCc3cc(F)c(C(F)(F)F)c(F)c3)C(=O)N2C1 [PP1201],AA (a compound having 20 or more is denoted as AA),A (a compound having 10 or more and less than 20 is denoted as A),,
CCO[C@@H]1C[C@H]2C(=O)NC3(CCC3)C(=O)N(C)[C@@H](C3CCCC3)C(=O)N(C)[C@H](C(=O)N(C)CC)CC(=O)N(C)[C@@H](CC(C)C)C(=O)N[C@@H]([C@@H](C)CC)C(=O)N(C)CC(=O)N(C)[C@H]3C/C=C\CCN(C3=O)[C@@H](Cc3ccc(C(F)(F)F)cc3)C(=O)N(C)CC(=O)N[C@@H](CCc3cc(F)c(C(F)(F)F)c(F)c3)C(=O)N2C1 [PP1300],,,A (a compound having 10 or more and less than 20 is denoted as A),A (a compound having 10 or more and less than 20 is denoted as A)
CCO[C@@H]1C[C@H]2C(=O)NC3(CCC3)C(=O)N(C)[C@@H](C3CCCC3)C(=O)N(C)[C@H](C(=O)N(C)CC)CC(=O)N(C)[C@@H](CC3CC3)C(=O)N[C@@H]([C@@H](C)CC)C(=O)N(C)CC(=O)N(C)[C@H]3C/C=C\CCN(C3=O)[C@@H](Cc3ccc(C(F)(F)F)cc3)C(=O)N(C)CC(=O)N[C@@H](CCc3cc(F)c(C(F)(F)F)c(F)c3)C(=O)N2C1 [PP1301],,,A (a compound having 10 or more and less than 20 is denoted as A),A (a compound having 10 or more and less than 20 is denoted as A)
CCO[C@@H]1C[C@H]2C(=O)NC3(CCC3)C(=O)N(C)[C@@H](C3CCCC3)C(=O)N(C)[C@H](C(=O)N(C)CC)CC(=O)N(C)[C@@H](C)C(=O)N[C@@H]([C@@H](C)CC)C(=O)N(C)CC(=O)N(C)[C@H]3C/C=C\CCN(C3=O)[C@@H](Cc3ccc(C(F)(F)F)cc3)C(=O)N(C)CC(=O)N[C@@H](CCc3cc(F)c(C(F)(F)F)c(F)c3)C(=O)N2C1 [PP1302],,,A (a compound having 10 or more and less than 20 is denoted as A),A (a compound having 10 or more and less than 20 is denoted as A)
CCO[C@@H]1C[C@H]2C(=O)NC3(CCC3)C(=O)N(C)[C@@H](C3CCCC3)C(=O)N(C)[C@H](C(=O)N(C)CC)CC(=O)N(C)[C@@H](CC(F)F)C(=O)N[C@@H]([C@@H](C)CC)C(=O)N(C)CC(=O)N(C)[C@H]3C/C=C\CCN(C3=O)[C@@H](Cc3ccc(C(F)(F)F)cc3)C(=O)N(C)CC(=O)N[C@@H](CCc3cc(F)c(C(F)(F)F)c(F)c3)C(=O)N2C1 [PP1303],,,AA (a compound having 20 or more is denoted as AA),A (a compound having 10 or more and less than 20 is denoted as A)
CCC[C@H]1C(=O)N[C@@H]([C@@H](C)CC)C(=O)N(C)CC(=O)N(C)[C@H]2C/C=C\CCN(C2=O)[C@@H](Cc2ccc(C(F)(F)F)cc2)C(=O)N(C)CC(=O)N[C@@H](CCc2cc(F)c(C(F)(F)F)c(F)c2)C(=O)N2C[C@H](OCC)C[C@H]2C(=O)NC2(CCC2)C(=O)N(C)[C@@H](C2CCCC2)C(=O)N(C)[C@H](C(=O)N(C)CC)CC(=O)N1C [PP1304],,,A (a compound having 10 or more and less than 20 is denoted as A),A (a compound having 10 or more and less than 20 is denoted as A)
CCO[C@@H]1C[C@H]2C(=O)NC3(CCC3)C(=O)N(C)[C@@H](C3CCCC3)C(=O)N(C)[C@H](C(=O)N(CC)CC)CC(=O)N(C)[C@@H](CC)C(=O)N[C@@H]([C@@H](C)CC)C(=O)N(C)CC(=O)N(C)[C@H]3C/C=C\CCN(C3=O)[C@@H](Cc3ccc(C(F)(F)F)cc3)C(=O)N(C)CC(=O)N[C@@H](CCc3cc(F)c(C(F)(F)F)c(F)c3)C(=O)N2C1 [PP1305],,,AA (a compound having 20 or more is denoted as AA),A (a compound having 10 or more and less than 20 is denoted as A)
CCO[C@@H]1C[C@H]2C(=O)NC3(CCC3)C(=O)N(C)[C@@H](C3CCCC3)C(=O)N(C)[C@H](C(=O)N(CC)CC)CC(=O)N(C)[C@@H](CC(C)C)C(=O)N[C@@H]([C@@H](C)CC)C(=O)N(C)CC(=O)N(C)[C@H]3C/C=C\CCN(C3=O)[C@@H](Cc3ccc(C(F)(F)F)cc3)C(=O)N(C)CC(=O)N[C@@H](CCc3cc(F)c(C(F)(F)F)c(F)c3)C(=O)N2C1 [PP1306],,,AA (a compound having 20 or more is denoted as AA),A (a compound having 10 or more and less than 20 is denoted as A)
CCO[C@@H]1C[C@H]2C(=O)NC3(CCC3)C(=O)N(C)[C@@H](C3CCCC3)C(=O)N(C)[C@H](C(=O)N(CC)CC)CC(=O)N(C)[C@@H](C)C(=O)N[C@@H]([C@@H](C)CC)C(=O)N(C)CC(=O)N(C)[C@H]3C/C=C\CCN(C3=O)[C@@H](Cc3ccc(C(F)(F)F)cc3)C(=O)N(C)CC(=O)N[C@@H](CCc3cc(F)c(C(F)(F)F)c(F)c3)C(=O)N2C1 [PP1308],,,A (a compound having 10 or more and less than 20 is denoted as A),A (a compound having 10 or more and less than 20 is denoted as A)
CCO[C@@H]1C[C@H]2C(=O)NC3(CCC3)C(=O)N(C)[C@@H](C3CCCC3)C(=O)N(C)[C@H](C(=O)N(CC)CC)CC(=O)N(C)[C@@H](CC(F)F)C(=O)N[C@@H]([C@@H](C)CC)C(=O)N(C)CC(=O)N(C)[C@H]3C/C=C\CCN(C3=O)[C@@H](Cc3ccc(C(F)(F)F)cc3)C(=O)N(C)CC(=O)N[C@@H](CCc3cc(F)c(C(F)(F)F)c(F)c3)C(=O)N2C1 [PP1309],,,A (a compound having 10 or more and less than 20 is denoted as A),A (a compound having 10 or more and less than 20 is denoted as A)
CCC[C@H]1C(=O)N[C@@H]([C@@H](C)CC)C(=O)N(C)CC(=O)N(C)[C@H]2C/C=C\CCN(C2=O)[C@@H](Cc2ccc(C(F)(F)F)cc2)C(=O)N(C)CC(=O)N[C@@H](CCc2cc(F)c(C(F)(F)F)c(F)c2)C(=O)N2C[C@H](OCC)C[C@H]2C(=O)NC2(CCC2)C(=O)N(C)[C@@H](C2CCCC2)C(=O)N(C)[C@H](C(=O)N(CC)CC)CC(=O)N1C [PP1310],,,AA (a compound having 20 or more is denoted as AA),A (a compound having 10 or more and less than 20 is denoted as A)
CCC[C@H]1C(=O)N[C@@H]([C@@H](C)CC)C(=O)N(C)CC(=O)N(C)[C@H]2C/C=C\CCN(C2=O)[C@@H](Cc2ccc(C(F)(F)F)cc2)C(=O)N(C)CC(=O)N[C@@H](CCc2cc(F)c(C(F)(F)F)c(F)c2)C(=O)N2C[C@H](OCC)C[C@H]2C(=O)NC2(CCC2)C(=O)N(C)[C@@H](C2CCCC2)C(=O)N(C)[C@H](C(=O)N2CC3CCC(C2)O3)CC(=O)N1C [PP1315],,,AA (a compound having 20 or more is denoted as AA),A (a compound having 10 or more and less than 20 is denoted as A)
CCO[C@@H]1C[C@H]2C(=O)NC3(CCC3)C(=O)N(C)[C@@H](C3CCCC3)C(=O)N(C)[C@H](C(=O)N(C)CCOC)CC(=O)N(C)[C@@H](CC)C(=O)N[C@@H]([C@@H](C)CC)C(=O)N(C)CC(=O)N(C)[C@H]3C/C=C\CCN(C3=O)[C@@H](Cc3ccc(C(F)(F)F)cc3)C(=O)N(C)CC(=O)N[C@@H](CCc3cc(F)c(C(F)(F)F)c(F)c3)C(=O)N2C1 [PP1316],,,A (a compound having 10 or more and less than 20 is denoted as A),A (a compound having 10 or more and less than 20 is denoted as A)
CCO[C@@H]1C[C@H]2C(=O)NC3(CCC3)C(=O)N(C)[C@@H](C3CCCC3)C(=O)N(C)[C@H](C(=O)N(C)CCOC)CC(=O)N(C)[C@@H](CC(C)C)C(=O)N[C@@H]([C@@H](C)CC)C(=O)N(C)CC(=O)N(C)[C@H]3C/C=C\CCN(C3=O)[C@@H](Cc3ccc(C(F)(F)F)cc3)C(=O)N(C)CC(=O)N[C@@H](CCc3cc(F)c(C(F)(F)F)c(F)c3)C(=O)N2C1 [PP1317],,,A (a compound having 10 or more and less than 20 is denoted as A),B (a compound having 3 or more and less than 10 is denoted as B)
CCO[C@@H]1C[C@H]2C(=O)NC3(CCC3)C(=O)N(C)[C@@H](C3CCCC3)C(=O)N(C)[C@H](C(=O)N(C)CCOC)CC(=O)N(C)[C@@H](CC3CC3)C(=O)N[C@@H]([C@@H](C)CC)C(=O)N(C)CC(=O)N(C)[C@H]3C/C=C\CCN(C3=O)[C@@H](Cc3ccc(C(F)(F)F)cc3)C(=O)N(C)CC(=O)N[C@@H](CCc3cc(F)c(C(F)(F)F)c(F)c3)C(=O)N2C1 [PP1318],,,A (a compound having 10 or more and less than 20 is denoted as A),A (a compound having 10 or more and less than 20 is denoted as A)
CCO[C@@H]1C[C@H]2C(=O)NC3(CCC3)C(=O)N(C)[C@@H](C3CCCC3)C(=O)N(C)[C@H](C(=O)N(C)CCOC)CC(=O)N(C)[C@@H](C)C(=O)N[C@@H]([C@@H](C)CC)C(=O)N(C)CC(=O)N(C)[C@H]3C/C=C\CCN(C3=O)[C@@H](Cc3ccc(C(F)(F)F)cc3)C(=O)N(C)CC(=O)N[C@@H](CCc3cc(F)c(C(F)(F)F)c(F)c3)C(=O)N2C1 [PP1319],,,A (a compound having 10 or more and less than 20 is denoted as A),B (a compound having 3 or more and less than 10 is denoted as B)
